What was measured:
ACVR2A = ACVR2A (Homo sapiens, UniProt P27037); assay: KINOMEscan competition binding; conditions: read-out: %Inh ACVR2A
GAK = biological target: T1, GAK (Homo sapiens, UniProt O14976); assay: KINOMEscan competition binding; conditions: read-out: %Inh GAK
T1 sequence (O14976 1-1311): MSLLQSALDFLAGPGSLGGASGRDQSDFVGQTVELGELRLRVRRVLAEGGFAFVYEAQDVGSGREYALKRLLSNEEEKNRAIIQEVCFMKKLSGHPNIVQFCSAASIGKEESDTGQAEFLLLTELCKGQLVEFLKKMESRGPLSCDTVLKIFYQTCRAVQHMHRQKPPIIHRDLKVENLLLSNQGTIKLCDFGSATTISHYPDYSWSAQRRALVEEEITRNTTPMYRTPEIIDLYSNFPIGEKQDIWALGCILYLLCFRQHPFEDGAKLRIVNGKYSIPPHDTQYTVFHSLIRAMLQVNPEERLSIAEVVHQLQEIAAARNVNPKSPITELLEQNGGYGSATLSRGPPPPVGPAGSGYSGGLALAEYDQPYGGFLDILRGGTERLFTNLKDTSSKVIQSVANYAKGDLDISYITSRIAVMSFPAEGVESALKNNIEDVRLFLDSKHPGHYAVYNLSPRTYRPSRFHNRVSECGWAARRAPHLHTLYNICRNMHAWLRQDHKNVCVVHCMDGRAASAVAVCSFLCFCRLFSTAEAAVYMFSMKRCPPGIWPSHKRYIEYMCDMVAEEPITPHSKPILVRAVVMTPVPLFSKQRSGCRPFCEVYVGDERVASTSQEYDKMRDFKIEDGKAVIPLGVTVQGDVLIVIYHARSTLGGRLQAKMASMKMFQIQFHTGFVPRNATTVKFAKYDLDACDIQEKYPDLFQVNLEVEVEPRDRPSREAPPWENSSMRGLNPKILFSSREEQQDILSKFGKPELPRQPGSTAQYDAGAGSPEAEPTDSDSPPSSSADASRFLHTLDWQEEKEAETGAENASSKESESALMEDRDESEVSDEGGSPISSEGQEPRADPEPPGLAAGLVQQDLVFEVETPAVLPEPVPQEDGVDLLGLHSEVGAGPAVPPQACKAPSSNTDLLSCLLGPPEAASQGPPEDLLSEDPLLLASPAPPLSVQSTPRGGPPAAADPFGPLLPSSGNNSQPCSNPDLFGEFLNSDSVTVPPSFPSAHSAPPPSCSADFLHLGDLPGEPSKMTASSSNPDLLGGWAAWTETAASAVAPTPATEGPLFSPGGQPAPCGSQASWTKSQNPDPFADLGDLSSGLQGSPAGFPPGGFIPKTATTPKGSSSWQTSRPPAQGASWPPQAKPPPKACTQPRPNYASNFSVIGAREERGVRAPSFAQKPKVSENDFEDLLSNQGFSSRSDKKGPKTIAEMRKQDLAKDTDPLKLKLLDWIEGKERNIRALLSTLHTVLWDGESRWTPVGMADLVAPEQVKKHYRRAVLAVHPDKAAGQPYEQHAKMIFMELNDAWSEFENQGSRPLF

CSNK2A1 = CSNK2A1 (Homo sapiens, UniProt P68400); assay: KINOMEscan competition binding; conditions: read-out: %Inh CSNK2A1
CSNK2A1, sequence (P68400 whole entry): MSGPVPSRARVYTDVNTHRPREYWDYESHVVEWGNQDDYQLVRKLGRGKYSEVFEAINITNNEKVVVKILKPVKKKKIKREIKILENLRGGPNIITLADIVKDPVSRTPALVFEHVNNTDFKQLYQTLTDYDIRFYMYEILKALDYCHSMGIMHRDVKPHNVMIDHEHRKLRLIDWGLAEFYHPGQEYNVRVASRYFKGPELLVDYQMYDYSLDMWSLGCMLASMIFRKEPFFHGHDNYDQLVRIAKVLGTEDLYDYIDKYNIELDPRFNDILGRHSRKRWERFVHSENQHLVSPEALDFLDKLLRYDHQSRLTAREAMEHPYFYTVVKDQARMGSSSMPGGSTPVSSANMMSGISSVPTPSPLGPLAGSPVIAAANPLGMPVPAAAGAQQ

[1] = test system: 392 wild-type human kinases; assay: KINOMEscan assay panel, PKIS2 profiling; format: binding; conditions: 1 μM
Excerpt: Since the assay was only run in singlicate it was important to follow up actives with Kd determinations.

CSNK1G1 = CSNK1G1 (Homo sapiens, UniProt Q9HCP0); assay: KINOMEscan competition binding; conditions: read-out: %Inh CSNK1G1
CSNK1G1, sequence (Q9HCP0 whole entry): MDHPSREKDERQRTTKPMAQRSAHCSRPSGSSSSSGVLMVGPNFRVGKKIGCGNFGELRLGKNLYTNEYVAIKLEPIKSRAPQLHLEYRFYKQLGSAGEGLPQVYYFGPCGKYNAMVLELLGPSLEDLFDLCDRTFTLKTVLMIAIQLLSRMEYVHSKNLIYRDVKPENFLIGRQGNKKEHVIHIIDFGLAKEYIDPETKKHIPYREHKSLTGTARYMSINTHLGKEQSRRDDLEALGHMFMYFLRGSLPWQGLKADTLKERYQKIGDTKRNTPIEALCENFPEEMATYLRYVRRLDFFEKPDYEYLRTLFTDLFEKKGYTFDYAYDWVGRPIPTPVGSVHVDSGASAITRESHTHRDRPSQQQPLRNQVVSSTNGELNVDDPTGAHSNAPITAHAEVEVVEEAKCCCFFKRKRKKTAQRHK

FLT3-autoinhibited = biological target: T2, FLT3-autoinhibited (Homo sapiens, UniProt P36888); assay: KINOMEscan competition binding; conditions: read-out: %Inh FLT3-autoinhibited
T2 sequence (P36888 27-993): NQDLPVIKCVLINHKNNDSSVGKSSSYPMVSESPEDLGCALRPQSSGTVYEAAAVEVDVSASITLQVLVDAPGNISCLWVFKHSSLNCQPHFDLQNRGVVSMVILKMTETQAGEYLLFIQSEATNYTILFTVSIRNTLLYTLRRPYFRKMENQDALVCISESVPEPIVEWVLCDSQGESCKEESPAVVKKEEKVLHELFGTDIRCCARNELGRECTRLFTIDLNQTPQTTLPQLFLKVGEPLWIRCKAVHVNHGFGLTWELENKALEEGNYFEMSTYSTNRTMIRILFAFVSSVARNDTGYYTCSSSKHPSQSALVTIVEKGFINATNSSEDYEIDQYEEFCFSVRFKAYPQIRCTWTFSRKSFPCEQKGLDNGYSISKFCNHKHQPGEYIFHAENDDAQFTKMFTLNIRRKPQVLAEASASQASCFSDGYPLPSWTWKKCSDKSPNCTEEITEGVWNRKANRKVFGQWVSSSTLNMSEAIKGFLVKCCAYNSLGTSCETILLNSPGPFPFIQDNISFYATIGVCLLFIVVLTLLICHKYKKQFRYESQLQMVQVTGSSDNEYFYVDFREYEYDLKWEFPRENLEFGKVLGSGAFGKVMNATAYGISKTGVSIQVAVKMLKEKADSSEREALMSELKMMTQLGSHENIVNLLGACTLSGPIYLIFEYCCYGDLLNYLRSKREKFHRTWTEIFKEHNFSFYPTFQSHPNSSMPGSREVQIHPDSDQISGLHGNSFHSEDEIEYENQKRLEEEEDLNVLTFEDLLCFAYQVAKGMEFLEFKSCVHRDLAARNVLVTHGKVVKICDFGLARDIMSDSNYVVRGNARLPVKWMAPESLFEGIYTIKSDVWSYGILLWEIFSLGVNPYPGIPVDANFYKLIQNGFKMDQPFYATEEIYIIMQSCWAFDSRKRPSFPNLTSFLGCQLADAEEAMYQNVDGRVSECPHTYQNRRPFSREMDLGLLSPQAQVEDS

CAMK2A = CAMK2A (Homo sapiens, UniProt Q9UQM7); assay: KINOMEscan competition binding; conditions: read-out: %Inh CAMK2A
CAMK2A, sequence (Q9UQM7 whole entry): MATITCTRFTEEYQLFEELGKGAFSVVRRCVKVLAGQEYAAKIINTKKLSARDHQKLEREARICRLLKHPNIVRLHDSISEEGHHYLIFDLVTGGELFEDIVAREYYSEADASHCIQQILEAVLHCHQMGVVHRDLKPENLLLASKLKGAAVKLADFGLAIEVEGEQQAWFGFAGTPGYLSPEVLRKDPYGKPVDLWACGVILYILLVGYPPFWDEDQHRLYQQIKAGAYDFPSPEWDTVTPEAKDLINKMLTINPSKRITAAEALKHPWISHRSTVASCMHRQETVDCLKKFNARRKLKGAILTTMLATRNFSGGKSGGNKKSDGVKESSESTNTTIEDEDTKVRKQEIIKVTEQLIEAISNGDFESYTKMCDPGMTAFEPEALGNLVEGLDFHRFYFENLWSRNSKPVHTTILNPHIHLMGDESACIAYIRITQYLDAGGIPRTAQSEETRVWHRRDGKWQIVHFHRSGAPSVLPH

ACVR2A, sequence (P27037 20-513): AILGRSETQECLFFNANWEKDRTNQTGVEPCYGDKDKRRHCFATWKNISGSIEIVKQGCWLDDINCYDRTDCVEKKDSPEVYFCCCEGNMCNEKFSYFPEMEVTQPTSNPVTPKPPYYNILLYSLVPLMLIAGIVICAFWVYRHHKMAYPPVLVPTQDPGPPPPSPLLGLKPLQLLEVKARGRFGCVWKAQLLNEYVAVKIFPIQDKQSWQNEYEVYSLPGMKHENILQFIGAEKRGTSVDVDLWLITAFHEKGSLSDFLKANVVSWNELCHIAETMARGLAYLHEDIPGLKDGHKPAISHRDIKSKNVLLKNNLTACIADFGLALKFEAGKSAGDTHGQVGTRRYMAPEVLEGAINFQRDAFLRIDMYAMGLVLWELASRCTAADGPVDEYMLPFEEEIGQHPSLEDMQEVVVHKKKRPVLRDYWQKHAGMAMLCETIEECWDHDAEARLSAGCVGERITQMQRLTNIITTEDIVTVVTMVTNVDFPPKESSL

Compound | inhibition at 1 µM (ACVR2A) | inhibition at 1 µM (GAK) | inhibition at 1 µM (CSNK2A1) | >70 (number of kinases with %Inh >70) [1] | >80 (number of kinases with %Inh >80) [1] | >90 (number of kinases with %Inh >90) [1] | inhibition at 1 µM (CSNK1G1) | inhibition at 1 µM (FLT3-autoinhibited) | inhibition at 1 µM (CAMK2A)
Cn1cc(-c2cnc(N)c3c(-c4ccc5c(c4)CCN5C(=O)Cc4ccccc4)csc23)cn1 [UNC10225012A] | 0% | 11% | 0% | 42 | 36 | 27 | 21% | 0% | 29%
CS(=O)(=O)Cc1ccc(Nc2nccc(-c3c(-c4cccc(NC(=O)C5CCCCC5)c4)nn4ncccc34)n2)cc1 [UNC10225159A] | 0% | 14% | 17% | 12 | 10 | 5 | 2% | 25% | 15%
Cc1ccc(NC(=O)Nc2cccc(C(F)(F)F)c2)cc1 [UNC10225187A] | 2% | 0% | 1% | 4 | 4 | 3 | 0% | 0% | 32%
COc1cccc(OC)c1C(=O)Nc1cccc(-c2nn3ccccc3c2-c2ccnc(Nc3cccc(F)c3)n2)c1 [UNC10225310A] | 7% | 6% | 0% | 19 | 19 | 12 | 14% | 0% | 27%
O=c1cc(N2CCOCC2)nc2n(Cc3cccc(Cl)c3Cl)c(C3CC3)nn12 [UNC10225469A] | 0% | 11% | 16% | 3 | 3 | 2 | 0% | 0% | 25%
